Source: patent publication US20120282187A1 (BOEHRINGER INGELHEIM INTERNATIONAL GMBH, priority 2008, published 2012)
Read-outs that look alike come from different tables or passages of the source.

Columns and labels:
AF patients [1] = conditions: SPORTIF III, cited from earlier work
AF patients [2] = conditions: ACTIVE W; cited from earlier work
AF patients [3] = conditions: SPORTIF V, cited from earlier work
[4] = test system: patients with atrial fibrillation at risk of stroke; assay: RELY clinical trial (Randomized Evaluation of Long-term Anticoagulation Therapy); type: in vivo
Description: The primary study outcome was stroke or systemic embolism. The primary safety outcome was major hemorrhage. Secondary outcomes were stroke, systemic embolism and death. […] All other bleeding was considered minor.
All analyses were based on intention-to-treat.

[5] = test system: patients who have nonvalvular atrial fibrillation; conditions: VKAs, such as warfarin; cited from earlier work
[6] = ximelagatran 36 mg b.i.d. vs warfarin

## CC(=O)CC(c1ccccc1)c1c(O)c2ccccc2oc1=O (racemic) [Warfarin, 3-(α-acetonylbenzyl)4-hydroxycoumarin]
AF patients [1]; Warfarin vs. Ximelagatran
  Myocardial Infarction: 0.6% (warfarin)
AF patients [1]; [6]
  Stroke and systemic embolism (per 100 patient years): 2.3% (warfarin)
AF patients [2]
  Myocardial Infarction: 0.6% (warfarin)
  Stroke and systemic embolism (per 100 patient years): 1.5% (warfarin)
AF patients [3]; Warfarin vs. Ximelagatran
  Myocardial Infarction: 1.4% (warfarin)
AF patients [3]; [6]
  Stroke and systemic embolism (per 100 patient years): 1.2% (warfarin)
[4]; INR 2.0 to 3.0, method of Rosendaal
  mean time in therapeutic range: 64%
[4]; net benefit, warfarin arm
  Stroke, systemic embolism, pulmonary embolism, myocardial infarction death or major bleed, Rate: 7.99 /100 Person Years
[4]; warfarin arm
  ALT or AST >3xULN: 2.1%
  ALT or AST >3xULN with concurrent bilirubin >2xULN: 0.4%
  ALT or AST >3xULN with concurrent bilirubin >2xULN, number: 22
  ALT or AST >3xULN, number: 126
  Adverse Event: Arthralgia: 5.5%
  Adverse Event: Arthralgia, number: 328
  Adverse Event: Atrial fibrillation: 5.4%
  Adverse Event: Atrial fibrillation, number: 326
  Adverse Event: Back pain: 5.5%
  Adverse Event: Back pain, number: 331
  Adverse Event: Chest pain: 5.7%
  Adverse Event: Chest pain, number: 342
  Adverse Event: Cough: 5.8%
  Adverse Event: Cough, number: 345
  Adverse Event: Diarrhea: 5.5%
  Adverse Event: Diarrhea, number: 327
  Adverse Event: Dizziness: 9.3%
  Adverse Event: Dizziness, number: 555
  Adverse Event: Dyspepsia: 1.4%
  Adverse Event: Dyspepsia, number: 83
  Adverse Event: Dyspnoea: 9.2%
  Adverse Event: Dyspnoea, number: 550
  Adverse Event: Fatigue: 5.9%
  Adverse Event: Fatigue, number: 353
  Adverse Event: Nasopharyngitis: 5.5%
  Adverse Event: Nasopharyngitis, number: 327
  Adverse Event: Peripheral edema: 7.6%
  Adverse Event: Peripheral edema, number: 453
  Adverse Event: Upper respiratory tract infection: 5.0%
  Adverse Event: Upper respiratory tract infection, number: 297
  Adverse Event: Urinary tract infection: 5.3%
  Adverse Event: Urinary tract infection, number: 315
  All Death, Rate: 4.13 /100 Person Years
  Any Major Bleeding, Rate: 3.46 /100 Person Years
  Extracranial Bleeding, Rate: 2.73 /100 Person Years
  First Hospitalization, Rate: 27.5 /100 Person Years
  Intracranial Bleeding, Rate: 0.72 /100 Person Years
  Major Bleeding, Life threatening, Rate: 1.80 /100 Person Years
  Major Bleeding, Other Major, Rate: 1.80 /100 Person Years
  Major gastro-intestinal Bleeding, Rate: 1.03 /100 Person Years
  Major or Minor Bleeding, Rate: 23.92 /100 Person Years
  Minor Bleeding, Rate: 21.03 /100 Person Years
  Mortality rates (death from any cause): 4.13 % per year
  Myocardial Infarction, Rate: 0.54 /100 Person Years
  Myocardial infarction rate: 0.54 % per year
  Non-disabling Stroke Modified Rankin 0-2, Rate: 0.58 /100 Person Years
  Pulmonary embolism, Rate: 0.09 /100 Person Years
  Rates of hemorrhagic stroke: 0.38 % per year
  Rates of major hemorrhage / major bleeding: 3.46 % per year
  Reason for discontinuation: Gastrointestinal bleeding: XXX (0.9) %
  Reason for discontinuation: Gastrointestinal disorders (including pain, vomiting and diarrhea): XXX (0.8) %
  Reason for discontinuation: Outcome event: XXX (2.2) %
  Reason for discontinuation: Patient decision: XXX (6.2) %
  Reason for discontinuation: SAE: 1.6%
  Reason for discontinuation: SAE, number: 95
  Stroke or systemic embolism, Rate: 1.70 /100 Person Years
  Stroke, Hemorrhagic, Rate: 0.38 /100 Person Years
  Stroke, Rate: 1.58 /100 Person Years
  Study Drug Discontinuation At one year: XXXX (10) %
  Study Drug Discontinuation At two years: XXXX (19) %
  Vascular Death, Rate: 2.69 /100 Person Years
  hepatobiliary disorders (AE): 2.2%
  hepatobiliary disorders (AE), number: 132
  hepatobiliary disorders (SAE): 0.4%
  hepatobiliary disorders (SAE), number: 25
  net benefit-risk outcome (major vascular events, major bleeding and death) rate: 7.99 % per year
  rates of discontinuation at 2.5 years: 19%
  stroke or systemic embolism (primary outcome) rate: 1.70 % per year
[4]; warfarin arm, listed as warfarin
  Study Drug Discontinuation At one year: 10%
[5]
  reduction of the risk of stroke compared to control: 64%
